Structures can show the parent of a compound that is named as a salt.
Assays:
[1] = system: neural invasion of human pancreatic cancer cells in mouse sciatic nerve; assay: administration of inhibitors to neural invasion model mice; type: in vivo
Procedure: Six-week-old male mice with severe combined immune deficiency (SCID) were used. The mice were anesthetized by administering barbital at 50 mg/kg into their peritoneal cavities. After exposing the left sciatic nerves, 2.5 μl of a suspension of cancer cells (1.0×10^4 cells/μl) was injected directly into the sciatic nerves using a microsyringe and 30-gauge needle. Upon assessment, the sciatic nerves into which cancer cells were injected were isolated. When tissue samples were prepared, the nerves were allowed to stand in 4% paraformaldehyde at 4° C. for one whole day and night to fix them. The fixed sciatic nerves were sliced into 3-μm sections, and then immunostained or hematoxylin/eosin-stained to measure the distance of neural invasion. Using an objective micrometer (Sankei Co.), the longitudinal length of the whole tumor was measured in the longitudinally sliced thin sections of the nerves to determine the distance of neural invasion. Tissue mRNA was extracted from tissue samples prepared by crushing with a Multi-Beads Shocker (Yasui Kikai Co.) immediately after harvesting the tissues.
The distance of neural invasion is an important factor in the mode of invasion of pancreatic cancer. […]
The analysis software used was STATVIEW 5.0. The difference between average values was evaluated by two-sided Student-t test. […]

[2] = system: human pancreatic cancer cell lines; assay: cell growth activity by monitoring the cell count over time; type: cell-based; settings: cell count over time (FIGS. 2A and 2B)
Procedure: (§1) Capan-1 and BxPC-3, which are human pancreatic cancer cell lines, were purchased from the American Type Culture Collection (ATCC). According to the manual recommended by ATCC, the cells were cultured and passaged using an incubator capable of maintaining a temperature of 37° C. under 5% CO2.
Cells were harvested from dishes, and viable cells were counted using trypan blue and a hemocytometer.
(§2) Using human recombinant IL-6, the effects of IL-6 on growth activity, chemotactic activity, and migratory activity of the human pancreatic cancer cell lines were assessed by monitoring the cell count over time (FIGS. 2A and 2B), by chemotaxis assay (FIG. 2C), and by wound healing assay (FIG. 2D).

[3] = system: human pancreatic cancer cell lines; assay: chemotaxis assay; type: cell-based; settings: hrIL6 0, 1, 10, 100 ng/ml, 24 hours (FIG. 2C)
Procedure: as §1
Cell culture inserts (BD Falcon) having 8-μm pores in the bottom surface were inserted into 24 wells. The cell culture inserts and wells were used as upper and lower chambers, respectively. Human recombinant IL-6 (hrIL6) vehicles were prepared at 0, 1, 10, and 100 ng/ml using hrIL6 (R&D systems) and serum-free culture medium. 600 μl of the hrIL6 vehicles was added to the lower chambers. 100 μl of a cell suspension (2×10^6 cells/ml) was added to the upper chambers. After 24 hours of incubation, cells that passed through the pores were counted. This assay was carried out twelve times for each group. The cell count was divided by the average number of cells that passed through the pores at 0 ng/ml hrIL6. The resulting normalized values were recorded.
as §2

[4] = system: human pancreatic cancer cell lines; assay: wound healing assay (migratory activity); type: cell-based; settings: hrIL6 0, 1, 10, 100 ng/ml, 24 hours (FIG. 2D)
Procedure: as §1
1 ml of a cell suspension (3×10^5 cells/ml) was added to each of 24 wells, and incubated for 24 hours. Then, the medium was replaced with serum-free medium. After 24 hours of incubation, a strip-shaped cell-free area was produced by scraping the central area of the well with a glass rod. After measuring the width of the strip, the medium was replaced with an hrIL6 vehicle at 0, 1, 10, or 100 ng/ml. After 24 hours of incubation, changes in the width of the cell-free area were determined. This assay was carried out twelve times for each group. The determined values were divided by the average width change at 0 ng/ml hrIL6. The resulting normalized values were recorded.
as §2

[5] = system: human pancreatic cancer Capan-1 cell line; assay: Western blotting of intracellular signaling (pSTAT3, pErk1/2, pAkt); type: cell-based
Procedure: Western blotting was carried out using the following primary antibodies: anti-phosphorylated STAT3 antibody (Santa Cruz), anti-STAT3 antibody (Santa Cruz), anti-phosphorylated Erk1/2 antibody (Cell Signaling), anti-Erk1/2 antibody (Cell Signaling), anti-phosphorylated Akt antibody (Cell Signaling), anti-Akt antibody (Cell Signaling), and anti-actin antibody (Santa Cruz). Fluorescent immunostaining was carried out using the following primary antibodies: anti-S100 antibody (DAKO) and anti-mouse IL-6 antibody (Santa Cruz). Nuclear staining was performed using DRAQ5 (AXXORA). Immunostaining was performed using an anti-phosphorylated STAT3 antibody (Santa Cruz).
Cell lysates were prepared using a lysate buffer (20 mM Hepes-NaOH (pH 7.0), 0.5% NP-40, 15% Glycerol, 300 mM NaCl, 1 mM EDTA, 10 mM NaF). The protein concentration was determined using a BCA Protein Assay Kit (PIERCE). Then, cell lysates containing […] of protein were electrophoresed in 7.5% or 12% acrylamide gels. The proteins were transferred onto a polyvinylidene difluoride membrane (Millipore). An antibody was added to the membrane, and the protein expression was visualized using Enhanced Chemiluminescence Reagent (Amersham Biosciences).
Using human recombinant IL-6 (rhIL6), the effect of IL-6 on intracellular signaling of the human pancreatic cancer Capan-1 cell line was assessed by Western blotting for phosphorylated STAT3 (pSTAT3) (FIG. 3A), phosphorylated Erk1/2 (pErk1/2) (FIG. 3B), and phosphorylated Akt (pAkt) (FIG. 3C). […] In contrast, IL-6 had no effect on the expression of phosphorylated Akt.

pancreatic cancer = pancreatic cancer patients, foreign phase III clinical trial data, cited from earlier work

## anti-human IL-6 receptor antibody: anti-IL-6 receptor antibody (tocilizumab; Chugai Pharmaceutical Co.), which inhibits the human IL-6 receptor; humanized PM-1 antibody
[1]; 5 μg/g twice a week for two weeks from one week after injection of cancer cells, assessed at three weeks, vs human IgG (FIG. 9B)
  neural invasion (invasion distance): suppression of neural invasion

## IL-6: Human recombinant IL-6 (R&D systems), cytokine added to pancreatic cancer cell lines
[2]
  effect on cell growth: no effect
[3]
  effect on chemotactic activity: enhances
[4]
  effect on migratory activity: enhances
[5]; Capan-1 (FIG. 3C)
  expression of phosphorylated Akt: no effect
[5]; Capan-1, 15 minutes after addition of rhIL6 (FIG. 3A)
  intracellular expression level of phosphorylated STAT3 protein: clearly elevated
[5]; Capan-1, one hour after addition of rhIL6 (FIG. 3B)
  intracellular expression level of phosphorylated Erk1/2 proteins: clearly elevated

## Nc1ccn([C@@H]2O[C@H](CO)[C@@H](O)C2(F)F)c(=O)n1 [gemcitabine hydrochloride]
Pancreatic cancer; first drug of choice
  efficacy rate of palliative effects: 23.8%
Pancreatic cancer
  median survival time: 5.7 months
  one-year survival rate: 18%

## N#C/C(=C/c1ccc(O)c(O)c1)C(=O)NCc1ccccc1 [AG490]
[1]; 0.5 mg intraperitoneally every day for 12 days from two days after injection of cancer cells, assessed at two weeks, vs 1% DMSO (FIG. 9A)
  neural invasion (invasion distance): suppression of neural invasion

— US10717781B2, “Neuroinvasion inhibitor” (National Cancer Center, priority 2008, dated 2020)
